Experimental data from patent US5808137A, “Chalcones and esters thereof with antiproliferative activity in uterus, ovary and breast tumors” (Indena S.p.A., priority 1994, dated 1998).
Read-outs that look alike come from different tables or passages of the source.

Columns and labels:
[1] = test system: uterus, ovary and breast tumour cell lines; assay: Antiproliferative activity on uterus, ovary and breast tumour cell lines; type: cell-based; settings: result in words
Experimental: (§1) The evaluation of the estrogen receptor binding has been carried out on tumour cells of ovary and other organs. Cells were growth in a monolayer culture on the minimum essential medium added with calf serum and with 200 units/ml of penicillin to maintain the medium sterile. In order to make the tests reproducible, the cells were trypsinated every week and placed on plates at a density of […] and incubated at 37° C. under air atmosphere containing 5% CO2 and humidity. […] After 24 hours the substrate was replaced with fresh substrate and the chalcones dissolved in absolute ethanol were added. […] The treatment described above was repeated at 24 hours time intervals during the 72 hours time of the test. […] At the end of the incubation time, the cells were quickly washed with fresh substrate and incubated for 30 minutes with 1M NaOH. The radioactivity was measured by means of a scintiller and the binding specificity was calculated as the difference between the preparations containing or not diethylstilbestrol. The results are expressed as the number of binding sites per cell, according to conventional methods. The inhibition on the cell proliferation is evaluated by direct count of the cells comparing the growth of the controls versus that of the treated.

[2] = test system: estrogen receptors of type II; assay: Binding affinity to estrogen receptors of type II (displacement of labelled estradiol in tumour cells); settings: for IC50: read-out: IC50 *** Concentration giving a 50% displacement of labelled estradiol (40 nM) from the receptor, labelled estradiol 40 nM; for affinity to estrogen receptors of type II: result in words
Experimental: as §1

[3] = test system: OVCA 433 cancer cells; assay: Antiproliferative activity on OVCA 433 cancer cells in vitro (direct cell count); type: cell-based; settings: read-out: IC50 ** Concentration giving a 50% inhibition on cell proliferation
Experimental: as §1

[4] = biological target: estrogen receptors of type II; settings: read-out: apparent affinity dissociation constant KD for estradiol; type II sites, rat uterus; cited from earlier work
[5] = test system: human leukemia cells; settings: result in words; cited from earlier work
[6] = OVCA433, OVCA 433 cancer cells in vitro, 72 hours test

Row | Compound | IC50 [2] | IC50 [3, 6] | antiproliferative activity on uterus, ovary and breast tumour cell lines [1] | affinity to estrogen receptors of type II [2] | IC50 ([3]; OVCA433, 72 h) | Kd [4] | inhibiting activity on the proliferation of human leukemia cells [5]
1 | O=C(/C=C/c1ccc(O)cc1)c1ccc(O)cc1O [Chalcone S6, 4,2',4'-trihydroxychalcone] | 3.2 µM |  | marked antiproliferative activity | remarkable affinity | 5 µM |  | 
2 | CC(C)=CCOc1ccc(C(=O)/C=C/c2ccc(O)cc2)c(O)c1 [Chalcone S8, 4-hydroxycordoin, reference compound] |  |  |  | no affinity |  |  | 
3 | CC(C)=CCOc1ccc(C(=O)CCc2ccccc2)c(O)c1 [Chalcone S9, Dihydrocordoin, reference compound] |  |  |  | no affinity |  |  | 
4 | C[C@]12CC[C@@H]3c4ccc(O)cc4CC[C@H]3[C@@H]1CC[C@@H]2O [estradiol] |  |  |  |  |  | 0.01 to 0.02 µM | 
5 | O=c1c(O)c(-c2ccc(O)c(O)c2)oc2cc(O)cc(O)c12 [quercetin] |  |  |  |  |  |  | some inhibiting activity

The next lines start with results.

Row | IC50 [2] | IC50 [3, 6] | Compound | antiproliferative activity on uterus, ovary and breast tumour cell lines [1] | affinity to estrogen receptors of type II [2] | IC50 ([3]; OVCA433, 72 h) | Kd [4] | inhibiting activity on the proliferation of human leukemia cells [5]
6 | 1.2 µM | 1.2 µM | CC(C)=CCc1c(O)ccc(C(=O)/C=C/c2ccccc2)c1O [Chalcone S1, Isocordoin] | marked antiproliferative activity | remarkable affinity |  |  | 
7 | 10.6 µM | 17 µM | COc1ccc(C(=O)/C=C/c2ccc(O)cc2)c(O)c1CC=C(C)C [Chalcone S2, 4-hydroxyderricin] | marked antiproliferative activity | remarkable affinity |  |  | 
8 | 18 µM | 4.2 µM | COc1ccc(C(=O)/C=C/c2ccccc2O)c(O)c1CC=C(C)C [Chalcone S3, 2-hydroxyderricin] | marked antiproliferative activity | remarkable affinity |  |  | 
9 | 12.1 µM | 5 µM | COc1ccc(C(=O)/C=C/c2cccc(O)c2)c(O)c1CC=C(C)C [Chalcone S4, 3-hydroxyderricin] | marked antiproliferative activity | remarkable affinity |  |  | 
10 | 0.6 µM | 2.5 µM | O=C(/C=C/c1ccccc1)c1ccc(O)cc1O [Chalcone S5, 2',4'-dihydroxychalcone] | marked antiproliferative activity | remarkable affinity |  |  | 
11 | 4.2 µM | 6 µM | CC(C)=CCOc1ccc(C(=O)/C=C/c2ccccc2)c(O)c1 [Chalcone S7, Cordoin] | marked antiproliferative activity | remarkable affinity |  |  | 
